In the NIST ThermoML archive (doi:10.1016/j.jct.2018.12.028):

Key:
[1] = 101.3 kPa, Liquid; for viscosity: Falling or rolling sphere viscometry; for mass density: Vibrating tube method
[2] = wn = mass fraction of the nth substance listed; details: 101.3 kPa, Liquid, w1 = 1; for viscosity: Falling or rolling sphere viscometry; for mass density: Vibrating tube method

COCCO [2-methoxyethan-1-ol]
[1]
Details | mass density [kg/m3] | viscosity [mPa·s]
293.15 K | 964.7 | 1.692
298.15 K | 960.1 | 1.527
303.15 K | 955.5 | 1.386
308.15 K | 950.9 | 1.262
313.15 K | 946.2 | 1.155
318.15 K | 941.5 | 1.061
323.15 K | 936.7 | 0.9781
328.15 K | 932 | 0.905
333.15 K | 927.2 | 0.8397
338.15 K | 922.3 | 0.7818
343.15 K | 917.4 | 0.7298
348.15 K | 912.4 | 0.6834
353.15 K | 907.4 | 0.6409

NCCO [2-aminoethan-1-ol] + COCCO
[2]
Details | mass density [kg/m3] | viscosity [mPa·s]
293.15 K | 1016.7 | 24.23
298.15 K | 1012.8 | 18.94
303.15 K | 1008.8 | 15.04
308.15 K | 1004.9 | 12.14
313.15 K | 1000.9 | 9.938
318.15 K | 996.9 | 8.236
323.15 K | 992.9 | 6.907
328.15 K | 988.8 | 5.855
333.15 K | 984.8 | 5.011
338.15 K | 980.7 | 4.327
343.15 K | 976.6 | 3.766
348.15 K | 972.5 | 3.3
353.15 K | 968.4 | 2.908

NCCO [2-aminoethan-1-ol]
[1]
Details | mass density [kg/m3] | viscosity [mPa·s]
293.15 K | 1016.7 | 24.23
298.15 K | 1012.8 | 18.94
303.15 K | 1008.8 | 15.04
308.15 K | 1004.9 | 12.14
313.15 K | 1000.9 | 9.938
318.15 K | 996.9 | 8.236
323.15 K | 992.9 | 6.907
328.15 K | 988.8 | 5.855
333.15 K | 984.8 | 5.011
338.15 K | 980.7 | 4.327
343.15 K | 976.6 | 3.766
348.15 K | 972.5 | 3.3
353.15 K | 968.4 | 2.908
